Ends that are not written are not given here.
Experiments:
CD8^+ T cells [1] = test: Intracellular cytokine staining (IFN-γ), splenocytes of S221-infected wild-type mice; format: cell-based, C57BL/6 mice
Protocol: (§1) All Ab were purchased from eBioscience with the exception of anti-CD8α-PerCP and anti-CD107a-FITC which were obtained from BD Biosciences. RBC in blood were lysed using RBC lysis buffer (eBioscience). For surface staining, splenocytes or blood cells were washed, incubated with supernatant from 2.4G2-producing hybridoma cells to block Fc receptors, and labeled with anti-CD8α-PerCP, anti-CD44-APC, and anti-CD62L-PE. For intracellular cytokine staining, 10^6 splenocytes or 10^5 blood cells were plated in 96-well U-bottom plates and stimulated with individual DENV peptides (0.1 μg/ml) in the presence of brefeldin A (GolgiPlug, BD Biosciences) for 5 h. For CD107a staining, CD107a-FITC (or rat IgG2a-FITC) was added to the wells at the same time as the peptide. Cells were washed, incubated with 2.4G2 supernatant, labeled with anti-CD8α-PerCP, fixed and permeabilized using the BD Cytofix/Cytoperm Kit, and stained with anti-IFN-γ-APC and anti-TNF-α-PE. Samples were read on a FACS Caliber (BD Biosciences) and analyzed using FloJo software (Tree Star, Inc.)
To confirm that the IFN-γ response to the MHC class I-binding DENV peptides was mediated by CD8^+ T cells, intracellular cytokine staining (ICS) on CD8^+ T cells isolated from S221-infected wild-type mice was performed. Splenocytes were harvested from C57BL/6 mice 7 days after infection with 10^11 genomic equivlalents (GE) S221 and were re-stimulated in vitro with individual DENV2 peptides or an irrelevant peptide (irr) at 0.1 μg/ml in the presence of brefeldin A for 5 h. Cells were then stained for surface CD8 and intracellular IFN-γ and analyzed by flow cytometry. […] The percent of CD8^+ T cells producing IFN-γ is indicated. Referring to FIG. 2B, the figure is a summary of the DENV2-specific CD8^+ IFN-γ^+ response. The response to the irrelevant control peptide was subtracted from the responses to each DENV2 peptide. Each symbol represents one mouse and the bar represents the geometric mean. The identification of the 12 positive peptides for S221 was confirmed by the intracellular cytokine staining (ICS) (FIG. 2A), and the response to the 8 most dominant peptides was determined (FIG. 2B). The responses ranged from 0.14% recognizing NS2A 36 to 9.8% of CD8^+ T cells recognizing NS4B 99.
Splenocytes were harvested from naïve C57BL/6 mice or mice 7 days after infection with 10^11 GE of S221. The percent of CD8^+ T cells expressing CD44 and CD62L was determined in four independent studies (FIG. 3A). On day 7 after infection, splenocytes were stimulated with the eight major DENV2 peptides (individually; at 0.1 μg/ml) in the presence of brefeldin A, and stained for surface CD8 and intracellular IFN-γ. The percent of CD8^+ T cells producing IFN-γ in response to the irrelevant control peptide was subtracted from the response to each DENV2 peptide to determine the net response. The net responses to the eight major DENV2 peptides were added to determine the percent of DENV2-specific CD44^hi, CD62^lo, and CD44^hiCD62L^lo CD8^+ T cells (FIG. 3B). The data are expressed as the mean percent±SEM of 11-14 mice tested in at least four independent experiments.

CD8^+ T cells [2] = test: TNF-α and CD107a staining after peptide re-stimulation; format: cell-based, wild-type or IFN-α/βR^−/− mice; conditions: splenocytes day 7 after S221 infection
Protocol: as §1
Because polyfunctional CD8^+ T cell responses are associated with protection (Harari et al., Immunol Rev 211:236 (2006)), the phenotype of the DENV-specific CD8^+ T cells in wild-type and IFN-α/βR^−/− mice was studied in more detail by measuring CD107a expression (CD107a, or LAMP-1, is expressed on the cell surface upon degranulation) and TNF-α production for two of the DENV-specific CD8^+ T cell populations, as described above. To collect the data, splenocytes harvested from wild-type or IFN-α/βR^−/− mice 7 days after infection with 10^11 or 10^10 GE of S221, respectively, were re-stimulated in vitro with C51-59, NS4B99-107, or an irrelevant peptide. An anti-CD107a Ab was added for the duration of the stimulation. Cells were then stained for surface CD8, intracellular IFN-γ and TNF-α, and analyzed by flow cytometry.

CD8^+ T cells [3] = test: IFN-γ ELISPOT with CD8^+ T cells of DENV2-infected C57BL/6 mice; format: cell-based; conditions: PL046 or S221 infected C57BL/6 mice

Sequence: YSQVNPITL [NS4B99-107]
- percent of CD8^+ T cells producing IFN-γ / recognizing the peptide (CD8^+ T cells [1]; wild-type C57BL/6, day 7 after 10^11 GE S221, peptide 0.1 μg/ml, 5 h): 9.8%
- share of the DENV2-specific response (CD8^+ T cells [1]; wild-type C57BL/6 mice): 30%
- % of splenic CD8^+ T cells (corresponding to average number) (CD8^+ T cells [1]; wild-type mice, day 7 after 10^11 GE S221): 5.9%
- number of CD8^+ T cells producing IFN-γ (average) (CD8^+ T cells [1]; wild-type mice, spleen, day 7 after 10^11 GE S221): 6.3×10^5 CD8^+ T cells
- CD107a surface expression (degranulation) (CD8^+ T cells [2]): expressed CD107a on the surface
- TNF-α production by peptide-specific CD8^+ T cells (CD8^+ T cells [2]): produced TNF-α
- IFN-γ ELISPOT response (net SFC per 10^6 CD8^+ T cells), in words (CD8^+ T cells [3]): highest responses

From patent US20110150914A1, “COMPOSITIONS AND METHODS FOR DENGUE VIRUS (DV) TREATMENT AND VACCINATION” (priority 2008, published 2011)
